This passage reports Activity results from ChEMBL document CHEMBL1148099, “New myrsinol-related polyfunctional pentacyclic diterpene esters from roots of Euphorbia prolifera” (J Nat Prod, 1995).

Some results are limits rather than exact numbers.

The series in a line: Skin irritant activity in mouse ear assessed as irritant units per ear after 24 hrs. In kind it is ADME, tissue-based. The settings on record: topical_or_ocular.

As for `CCC(=O)OC1C(C)CC2(OC(C)=O)C1[C@@H](OC(C)=O)[C@@]13CO[C@@](C)(C2OC(C)=O)C1C1C(C[C@]1(C)OC(C)=O)C(OC(=O)C(C)C)C3=O` (some centres not stated), the Activity is more than 1000 µg.

Take `CCC(=O)OC1C(C)CC2(OC(C)=O)C1[C@@H](OC(C)=O)[C@@]13CO[C@@](C)(C2OC(C)=O)C1C1C(C[C@]1(C)OC(C)=O)C(OC(=O)c1ccccc1)C3=O` (some centres not stated): the Activity is more than 1000 µg.
